Measurements published in patent publication US20240368163A1, “COMPOUNDS AND METHODS FOR MODULATING SPLICING” (REMIX THERAPEUTICS INC., priority 2021, published 2024).

Tests used:
Assay type in all cases: cell-based, human
Target C [1] = assay: HiBiT protein abundance assay, Target C; settings: Homo sapiens, K562, 24 h, modified K562 cells
Procedure, shortened: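 Target tagged with HiBiT by knock-in; 24 h dosing, 10 μM top final in 3-fold steps. IC50 from 4PL fit of normalized luminescence.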

MYB [2] = assay: HiBiT protein abundance assay, MYB; settings: Homo sapiens, K562, 24 h, modified K562 cells
Procedure, shortened: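 Tagged-target degradation assay: HiBiT-modified K562 cells treated 24 h with compound, 10 concentrations up to 10 μM final. Following lysis with LgBiT and substrate, luminescence gave normalized abundance; IC50 derived by logistic interpolation at 50%.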

MYB [3] = assay: Splicing RT-qPCR assay, MYB mRNA canonical junction (CJ) and alternative junction (AJ); settings: Homo sapiens, read-out: MYB IC50 (decrease in CJ mRNA levels)
Procedure, shortened: (§1)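 A673 or K562 cells treated 24 h at 37 °C with 11-point 3-fold dilutions, top 10 uM, DMSO ≤0.25%. Lysates read by RT-qPCR for CJ and AJ isoforms, normalized to GAPDH, GUSB or PPIA; ΔΔCt vs DMSO converted to RQ, then percent response.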

Target C [4] = assay: Splicing RT-qPCR panel, Target C canonical junction (CJ) mRNA; settings: Homo sapiens, read-out: Target C IC50 (decrease in CJ mRNA levels)
Procedure, shortened: as §1

[5] = RT-qPCR panel, canonical junction mRNA, compound concentration having 50% response in CJ decrease
[6] = gene panel, CJ qPCR, protocol of Example 142

Compound	IC50 (Target C [1]; Table 13A) [µM]	IC50 (MYB [2]; Table 13A) [µM]	IC50 (MYB [3]; [5]) [µM]	IC50 (Target C [4]; [5]) [µM]	IC50 (Target C [1]; Table 13B) [µM]	IC50 (MYB [2]; Table 13B) [µM]	IC50 (MYB [3]; [6]) [µM]	IC50 (Target C [4]; [6]) [µM]
Cc1cc(-c2ccc(-c3cnc(N(C)[C@@H]4C[C@H]5CCC[C@@H](C4)N5)nn3)c3scnc23)sn1 [Compound 580]	< 0.1	0.1 to 1	0.1 to 1	< 0.1				
CC(C)(C)[C@H]1CN(c2ncc(-c3ccc(-n4cccn4)c4[nH]ncc34)nn2)CCN1 [Compound 581]	< 0.1	0.1 to 1	0.1 to 1	0.1 to 1				
COc1nc(-c2ccc(N(C)[C@@H]3C[C@H]4CC[C@@H](C3)N4)nn2)ccc1-c1cn[nH]c1 [Compound 906]					< 0.1	< 0.1	0.1 to 1	< 0.1
CN(c1ccc(-c2ccc(-c3cn[nH]c3)cn2)nn1)[C@@H]1C[C@H]2CC[C@@H](C1)N2 [Compound 915]					1 to 10	1 to 10	0.1 to 1	1 to 10
COc1nc(-c2ccc(OC3CC(C)(C)NC(C)(C)C3)nn2)ccc1-c1cn[nH]c1 [Compound 917]					< 0.1	0.1 to 1	0.1 to 1	0.1 to 1
COc1nc(-c2ccc(OC3CC(C)(C)NC(C)(C)C3)nn2)ccc1-c1cnn(C)c1 [Compound 918]					0.1 to 1	0.1 to 1	0.1 to 1	0.1 to 1
COc1nc(-c2ccc(N(C)C3CC(C)(C)NC(C)(C)C3)nn2)ccc1-c1cn[nH]c1 [Compound 919]					< 0.1	0.1 to 1	0.1 to 1	0.1 to 1
COc1nc(-c2ccc(N(C)C3CC(C)(C)NC(C)(C)C3)nn2)ccc1-c1cnn(C)c1 [Compound 920]					0.1 to 1	0.1 to 1	0.1 to 1	0.1 to 1
CN(c1ccc(-c2ccc(-c3cn[nH]c3)c(F)n2)nn1)[C@@H]1C[C@H]2CC[C@@H](C1)N2 [Compound 922]					< 0.1	< 0.1	0.1 to 1	0.1 to 1
CN(c1ccc(-c2ccc(-c3cn[nH]c3)c(C#N)n2)nn1)[C@@H]1C[C@H]2CC[C@@H](C1)N2 [Compound 930]					< 0.1	< 0.1	0.1 to 1	0.1 to 1
COc1nc(-c2ccc(N(C)[C@@H]3C[C@H]4CC[C@@H](C3)N4)nn2)cc(F)c1-c1cn[nH]c1 [Compound 931]					< 0.1	< 0.1	< 0.1	< 0.1
CN(c1ccc(-c2ccc(-c3cn[nH]c3)c(OC3CC3)n2)nn1)[C@@H]1C[C@H]2CC[C@@H](C1)N2 [Compound 939]					< 0.1	< 0.1	0.1 to 1	0.1 to 1
COc1cc(-c2ccc(-c3ccc(N(C)[C@@H]4C[C@H]5CC[C@@H](C4)N5)nn3)nc2OC)ncn1 [Compound 954]					1 to 10	1 to 10	1 to 10	1 to 10
CN(c1ccc(-c2ccc(-c3cn[nH]c3)c(OC(F)F)n2)nn1)[C@@H]1C[C@H]2CC[C@@H](C1)N2 [Compound 955]					< 0.1	< 0.1	0.1 to 1	0.1 to 1
COc1nc(-c2ccc(N3CCC(NC(C)(C)C)C3)nn2)ccc1-c1cn[nH]c1 (stereo not drawn) [Compound 956]					0.1 to 1	0.1 to 1	0.1 to 1	0.1 to 1
COc1nc(-c2ccc(N(C)[C@@H]3C[C@H]4CC[C@@H](C3)N4)nn2)ccc1-c1ccnc(O)c1 [Compound 961]					0.1 to 1	1 to 10	0.1 to 1	0.1 to 1
COc1nc(-c2ccc(O[C@@H]3C[C@H]4CC[C@@H](C3)N4)nn2)ccc1-c1cnc(C)s1 [Compound 962]					0.1 to 1	0.1 to 1	0.1 to 1	1 to 10
COc1nc(-c2ccc(OC3CC(C)(C)NC(C)(C)C3)nn2)cc(F)c1-c1cn[nH]c1 [Compound 965]					< 0.1	0.1 to 1	0.1 to 1	0.1 to 1
CCOc1nc(-c2ccc(OC3CC(C)(C)NC(C)(C)C3)nn2)cc(F)c1-c1cn[nH]c1 [Compound 966]					< 0.1	< 0.1	0.1 to 1	< 0.1
CCOc1nc(-c2ccc(OC3CC(C)(C)NC(C)(C)C3)nn2)ccc1-c1cn[nH]c1 [Compound 967]					< 0.1	0.1 to 1	0.1 to 1	0.1 to 1
COc1nc(-c2ccc(OC3CC4CC(F)(F)C(C3)N4)nn2)cc(F)c1-c1cn[nH]c1 (stereo not drawn) [Compound 969]					0.1 to 1	0.1 to 1	> 10	> 10
